Experimental data reported in paper PMC10797613 (ACS Chemical Neuroscience, 2024).
pEC50, pKi: −log10 of the molar value. Values joined by “and” are separate entries in the source; they are usually repeats but may differ in a detail not shown here. Equal entries are not always repeated. Where two headings read alike, the source gives them in different places.

Tests used:
H1 = H1 (Homo sapiens, UniProt P35367); test: biochemical; assay type: binding
5-HT2B receptor = 5-HT2B receptor (Homo sapiens, UniProt P41595); test: Gαq-mediated calcium flux assay; assay type: cell-based; conditions: 95% CI in brackets; * = potentially ambiguous
C57BL/6J mice [1] = test: mouse head twitch response; assay type: in vivo; conditions: for time of peak HTR effects / Emax(HTR events/30 min) / ED50(mg/kg s.c.) for HTR: mice; for time of peak HTR effects: post drug administration; for Emax(HTR events/30 min) / ED50(mg/kg s.c.) for HTR: s.c.; for Emax(HTR events/30 min): maximum effect; for ED50(mg/kg s.c.) for HTR: 30 min session, ascending phase of HTR curve; for HTR activity (in words): mouse, in vivo
5-HT2A receptor = 5-HT2A receptor (Homo sapiens, UniProt P28223); test: Gαq-mediated calcium flux assay; assay type: cell-based; conditions: read-out: Emax (% 5-HT) 5-HT2A calcium flux, 95% CI in brackets
C57BL/6J mice [2] = test: locomotor activity; assay type: in vivo, mouse; conditions: s.c., 30 min testing session
5-HT2C receptor = biological target: T1, 5-HT2C receptor (Homo sapiens, UniProt P28335); test: Gαq-mediated calcium flux assay; assay type: cell-based
T1 sequence (P28335 33-458): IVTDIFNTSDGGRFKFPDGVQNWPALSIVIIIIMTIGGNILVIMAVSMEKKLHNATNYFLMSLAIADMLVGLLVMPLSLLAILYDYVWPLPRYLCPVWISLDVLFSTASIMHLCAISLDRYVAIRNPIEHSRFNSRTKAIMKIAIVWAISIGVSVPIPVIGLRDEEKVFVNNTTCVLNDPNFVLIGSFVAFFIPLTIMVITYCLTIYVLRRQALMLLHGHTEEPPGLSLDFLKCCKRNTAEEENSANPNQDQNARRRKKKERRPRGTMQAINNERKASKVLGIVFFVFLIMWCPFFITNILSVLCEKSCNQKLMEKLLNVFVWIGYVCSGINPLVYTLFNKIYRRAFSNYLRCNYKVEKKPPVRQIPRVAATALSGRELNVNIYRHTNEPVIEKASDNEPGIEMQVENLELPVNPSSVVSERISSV

5-HT1B = 5-HT1B (Homo sapiens, UniProt P28222); test: GPCR Tango assay measuring β-arrestin recruitment; assay type: cell-based; conditions: up to 50 μM
C57BL/6J mice [3] = test: body temperature change from pre to post session in mice; assay type: in vivo, mouse; conditions: highest dose tested
5-HT7A = 5-HT7A (Homo sapiens, UniProt P34969); test: GPCR Tango assay measuring β-arrestin recruitment; assay type: cell-based; conditions: EC50 5-HT7A Tango, 95% CI in brackets; * = ambiguous
C57BL/6J mice [4] = conditions: cited from earlier work
[5] = s.c., identical testing conditions

Sequence of 5-HT1B (P28222 whole entry): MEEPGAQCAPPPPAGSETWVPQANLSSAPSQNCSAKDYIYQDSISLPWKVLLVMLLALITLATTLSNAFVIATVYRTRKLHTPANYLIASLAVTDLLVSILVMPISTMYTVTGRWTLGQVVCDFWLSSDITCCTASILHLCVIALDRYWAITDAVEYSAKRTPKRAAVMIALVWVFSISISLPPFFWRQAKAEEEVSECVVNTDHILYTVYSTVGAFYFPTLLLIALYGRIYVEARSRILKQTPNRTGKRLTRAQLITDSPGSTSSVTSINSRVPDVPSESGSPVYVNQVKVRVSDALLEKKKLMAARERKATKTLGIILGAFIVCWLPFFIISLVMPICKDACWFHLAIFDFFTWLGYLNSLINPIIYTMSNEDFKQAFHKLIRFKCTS
Sequence of 5-HT2B receptor (P41595 whole entry): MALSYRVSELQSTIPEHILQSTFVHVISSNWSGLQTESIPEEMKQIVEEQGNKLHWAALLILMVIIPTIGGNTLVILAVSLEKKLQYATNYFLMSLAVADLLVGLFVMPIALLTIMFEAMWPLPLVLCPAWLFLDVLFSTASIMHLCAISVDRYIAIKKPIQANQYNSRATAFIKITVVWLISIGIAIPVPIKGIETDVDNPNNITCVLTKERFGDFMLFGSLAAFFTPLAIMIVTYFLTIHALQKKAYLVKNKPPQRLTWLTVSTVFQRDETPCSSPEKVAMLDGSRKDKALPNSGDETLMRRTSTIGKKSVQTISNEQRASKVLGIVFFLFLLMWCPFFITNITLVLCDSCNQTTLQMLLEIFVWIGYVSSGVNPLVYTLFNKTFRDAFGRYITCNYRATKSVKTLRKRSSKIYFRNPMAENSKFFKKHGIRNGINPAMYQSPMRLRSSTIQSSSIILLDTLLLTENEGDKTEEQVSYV
Sequence of H1 (P35367 whole entry): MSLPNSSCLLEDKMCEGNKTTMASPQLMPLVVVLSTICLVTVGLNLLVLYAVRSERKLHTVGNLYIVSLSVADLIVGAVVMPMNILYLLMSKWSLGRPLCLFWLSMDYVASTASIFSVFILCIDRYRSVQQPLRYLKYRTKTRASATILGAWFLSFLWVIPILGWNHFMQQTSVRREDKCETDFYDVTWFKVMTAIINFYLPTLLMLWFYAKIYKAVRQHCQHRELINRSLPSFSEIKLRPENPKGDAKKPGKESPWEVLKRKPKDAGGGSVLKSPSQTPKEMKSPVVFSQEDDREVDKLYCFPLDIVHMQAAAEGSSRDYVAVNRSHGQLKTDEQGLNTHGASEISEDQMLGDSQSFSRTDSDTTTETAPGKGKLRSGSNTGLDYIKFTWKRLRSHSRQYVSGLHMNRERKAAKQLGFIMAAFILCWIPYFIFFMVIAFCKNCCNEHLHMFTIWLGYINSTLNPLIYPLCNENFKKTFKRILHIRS
Sequence of 5-HT2A receptor (P28223 whole entry): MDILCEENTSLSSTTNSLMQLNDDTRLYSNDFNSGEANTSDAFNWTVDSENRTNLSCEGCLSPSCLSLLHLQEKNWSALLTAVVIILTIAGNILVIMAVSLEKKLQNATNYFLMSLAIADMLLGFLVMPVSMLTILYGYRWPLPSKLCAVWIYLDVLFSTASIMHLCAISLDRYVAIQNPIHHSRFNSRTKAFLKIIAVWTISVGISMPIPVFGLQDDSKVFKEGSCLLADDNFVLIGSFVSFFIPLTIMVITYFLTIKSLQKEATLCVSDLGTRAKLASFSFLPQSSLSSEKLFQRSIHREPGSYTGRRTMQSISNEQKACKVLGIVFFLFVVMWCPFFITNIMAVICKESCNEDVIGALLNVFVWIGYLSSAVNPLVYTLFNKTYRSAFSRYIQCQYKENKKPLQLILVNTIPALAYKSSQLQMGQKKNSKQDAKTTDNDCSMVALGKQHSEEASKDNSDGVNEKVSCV
Sequence of 5-HT7A (P34969 1-445 isoform P34969-2): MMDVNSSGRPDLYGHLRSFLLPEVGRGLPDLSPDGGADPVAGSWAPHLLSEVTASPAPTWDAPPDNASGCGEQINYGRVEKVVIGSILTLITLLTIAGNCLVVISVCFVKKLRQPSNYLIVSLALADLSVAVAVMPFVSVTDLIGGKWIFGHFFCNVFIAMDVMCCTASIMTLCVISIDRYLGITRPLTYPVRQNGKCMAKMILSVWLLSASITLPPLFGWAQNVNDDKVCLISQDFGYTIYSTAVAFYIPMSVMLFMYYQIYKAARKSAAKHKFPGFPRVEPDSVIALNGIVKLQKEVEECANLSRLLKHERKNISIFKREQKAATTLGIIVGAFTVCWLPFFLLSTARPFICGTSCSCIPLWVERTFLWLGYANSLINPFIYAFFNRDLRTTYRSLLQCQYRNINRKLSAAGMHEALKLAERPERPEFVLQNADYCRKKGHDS

SMILES	time of peak HTR effects (C57BL/6J mice [1]) [min]	Emax(HTR events/30 min) (C57BL/6J mice [1])	effect on locomotor activity (in words) (C57BL/6J mice [2])	5-HT2C functional activity (in words) (5-HT2C receptor)	HTR activity (in words) (C57BL/6J mice [1])	further results
C=CCNCCc1c[nH]c2cccc(O)c12.C=CCNCCc1c[nH]c2cccc(O)c12.O=C(O)/C=C/C(=O)O [4-HO-NALT, 3-(2-(Allylamino)ethyl)-1H-indol-4-ol Hemifumarate]	5 to 15	77 HTR events/30 min and 76.6 HTR events/30 min				pKi (H1): 6.33; Emax (% 5-HT) 5-HT2B calcium flux (5-HT2B receptor): 88 % 5-HT
O=C(O)/C=C/C(=O)O.Oc1cccc2[nH]cc(CCNCc3ccccc3)c12 [4-HO-NBnT, 3-(2-(Benzylamino)ethyl)-1H-indol-4-ol Fumarate]	5 to 15	26.1 HTR events/30 min	reduced the total locomotor activity			Emax (5-HT2A receptor): 70%; Emax (% 5-HT) 5-HT2B calcium flux (5-HT2B receptor): 11 % 5-HT; decrease in HTR potency relative to psilocin (C57BL/6J mice [1]; mg/kg basis): 10 fold
CCNCCc1c[nH]c2cccc(O)c12.CCNCCc1c[nH]c2cccc(O)c12.O=C(O)CCC(=O)O [4-HO-NET, 3-(2-(Ethylamino)ethyl)-1H-indol-4-ol Hemisuccinate]	15 to 25	39.8 HTR events/30 min	reduced the total locomotor activity			delay of maximum HTR occurrence compared to 4-HO-NALT (C57BL/6J mice [1]; at equivalent doses): 10 min
CCCNCCc1c[nH]c2cccc(O)c12.CCCNCCc1c[nH]c2cccc(O)c12.O=C(O)/C=C/C(=O)O [4-HO-NPT, 3-(2-(Propylamino)ethyl)-1H-indol-4-ol Hemifumarate]	5 to 15	52 HTR events/30 min and 52.1 HTR events/30 min	reduced the total locomotor activity			ED50(mg/kg s.c.) for HTR (C57BL/6J mice [1]): 2.9 mg/kg
O=C(O)/C=C/C(=O)O.Oc1cccc2[nH]cc(CCNC3CCCCC3)c12 [4-HO-NcHT, 3-(2-(Cyclohexylamino)ethyl)-1H-indol-4-ol Fumarate]				inactive	inactive	5-HT1B agonist activity Tango (in words) (5-HT1B): inactive
CC(C)NCCc1c[nH]c2cccc(O)c12.O=C(O)/C=C/C(=O)O [4-HO-NiPT, 3-(2-(Isopropylamino)ethyl)-1H-indol-4-ol Fumarate]	15 to 25	27 HTR events/30 min and 27.5 HTR events/30 min		weak partial agonists		ED50(mg/kg s.c.) for HTR (C57BL/6J mice [1]): 3.3 mg/kg; hypothermia Emax (C57BL/6J mice [3]): −1.7 °C
CCCCNCCc1c[nH]c2cccc(O)c12.O=C(O)/C=C/C(=O)O [4-HO-NnBT, 3-(2-(Butylamino)ethyl)-1H-indol-4-ol Fumarate]			reduced the total locomotor activity	weak partial agonists	inactive	pEC50 (5-HT7A): 6.00
CC(C)(C)NCCc1c[nH]c2cccc(O)c12.CC(C)(C)NCCc1c[nH]c2cccc(O)c12.O=C(O)/C=C/C(=O)O [4-HO-NtBT, 3-(2-(tert-Butylamino)ethyl)-1H-indol-4-ol Hemifumarate]				inactive	inactive	5-HT1B agonist activity Tango (in words) (5-HT1B): inactive
CNCCc1c[nH]c2cccc(O)c12 [norpsilocin, 4-hydroxy-N-methyltryptamine]						ED50(mg/kg s.c.) for HTR (C57BL/6J mice [4]; [5]): >30 mg/kg; HTR activity (in words) (C57BL/6J mice [4]; same assay setup): failed to induce psychedelic-like HTR activity
CN(C)CCc1c[nH]c2cccc(O)c12 [psilocin, 4-hydroxy-N,N-dimethyltryptamine]						reported HTR ED50 potency (C57BL/6J mice [4]): 0.11 to 0.17 mg/kg; ED50(mg/kg s.c.) for HTR (C57BL/6J mice [4]; [5]): 0.11 mg/kg; Emax(HTR events/30 min) (C57BL/6J mice [4]; [5]): 23 HTR events/30 min
